Experimental data taken from patent US20260151370A1, “Nutritional composition for neurodegeneration and neurotrauma” (N.V. Nutricia, priority 2023, published 2026).

Test system: PC12 neuronal cells
Assay: Neurite outgrowth in NGF-differentiated PC12 neuronal cell cultures (Calcein-AM/Hoechst imaging)
Type: cell-based
Experimental: In order to assess the effects of nutritional components on axonal outgrowth and dendritic arborization underlying functional brain connectivity, the effects of nutrient supplementation on neurite outgrowth parameters in PC12 pheochromocytoma cells was investigated. PC12 neuronal cell model is one of the most widely used cell models for the study of neuronal differentiation. PC12 pheochromocytoma cells were grown in DMEM (Gibco), supplemented with 10% fetal bovine serum (FBS), penicillin (100 units/ml), and streptomycin (100 μg/ml) (Gibco), under a humidified atmosphere with 95% air and 5% CO2 at 37° C. Cells were seeded onto a collagen (0.01 mg/ml) coated 96-well plates at a density of 5000 cells/well and after 24 hours supplemented with medium containing 20 ng/ml nerve growth factor (NGF) with or without the components as defined in the present and in the following examples. Cell cultures were incubated at 37° C. in 5% CO2 and medium was replaced every 2-3 days. DHA and EPA were resuspended in absolute ethanol and diluted 5 times in fetal bovine serum. Other compounds were dissolved in DMEM. All compounds were purchased from Sigma (Zwijndrecht, The Netherlands). Supplementation of cells was performed in 6-fold in 96 wells plates. Neurite outgrowth of these conditions was compared to non-supplemented cells. After 48 hours of nutrient supplementation, cell bodies and neurites were stained using Calcein-AM stain (0.2 μg/ml) (Invitrogen, batch #C3100MP) and the nuclei were counterstained using Hoechst stain (1.2 μg/ml) (Thermo Scientific, batch #62249) in 100 μl culture medium per well and incubated for 20 min at 37° C. Subsequently, FITC and DAPI images (9 images per well, 6 wells per condition) were taken using an ImageXpress Micro Confocal high content imaging system (Molecular Devices). Neurite length was quantified using the neurite outgrowth module in MetaXpress. Image analysis was carried out using the neurite outgrowth analysis module in MetaXpress (Molecular Devices). The measurements taken from each well included the number of nuclei and the mean neurite outgrowth (μm) per cell. The data was normalized to and expressed as a relative percentage of the plate-averaged value of the vehicle-treated control wells.

[1] = FIG. 4 plate: total 20 μM choline from chol-Cl, PC or both
[2] = FIG. 8 plate: BA 200 μM, B2 0.25 μM, DHA 2.5 μM, D3 0.25 μM, PC 20 μM, alone or combined
[3] = FIG. 9 first plate: B2 0.25 μM, D3 0.75 μM, PC 15 μM, BA 40 μM, alone or together with reference diet
[4] = FIG. 1 plate: DHA 6.7 μM, EPA 10 μM, vitamin B2 1.25 μM, vitamin D3 0.25 μM, alone or combined, 48 hours, 20 ng/ml NGF

**Q.** Which “neurite outgrowth compared to control” value [1] does the source give for phosphatidylcholine [PC] here?
**A.** increases neurite outgrowth more than supplementation with 100 mole % chol-Cl

**Q.** And the “observed mean neurite outgrowth, percentage relative to control (100%)” value (FIG. 5 plate: choline 20 μM (chol-Cl and/or PC), DHA 3.3 μM, B2 0.5 μM, D3 0.25 μM)?
**A.** increased neurite outgrowth more than supplementation with 100 mole % chol-Cl

**Q.** And the “observed mean neurite outgrowth, percentage relative to control (100%)” value [2]?
**A.** increased neurite outgrowth more than supplementation of vitamin B2 and D3 alone

**Q.** What about the “observed mean neurite outgrowth, percentage relative to control (100%)” value [3] of the same compound?
**A.** increased neurite outgrowth

**Q.** Which “observed mean neurite outgrowth, percentage relative to control (100%)” value [4] does the source give for `Cc1cc2nc3c(=O)[nH]c(=O)nc-3n(C[C@H](O)[C@H](O)[C@H](O)CO)c2cc1C` [vitamin B2, riboflavin] here?
**A.** increased neurite outgrowth

**Q.** And the “observed mean neurite outgrowth, percentage relative to control (100%)” value [3]?
**A.** increased neurite outgrowth

**Q.** With `C[N+](C)(C)CCO.[Cl-]` [chol-Cl, choline-chloride] as the compound, how does the “neurite outgrowth compared to control” value [1] read?
**A.** enhance neurite outgrowth

**Q.** What does the source list for `C=C1CC[C@H](O)C/C1=C/C=C1\CCC[C@]2(C)[C@@H]([C@H](C)CCCC(C)C)CC[C@@H]12` [vitamin D3, cholecalciferol]?
**A.** observed mean neurite outgrowth, percentage relative to control (100%) [4]: increased neurite outgrowth; observed mean neurite outgrowth, percentage relative to control (100%) [3]: increased neurite outgrowth

**Q.** `CCCC(=O)O` [BA, butyric acid] was tested. Which “neurite outgrowth compared to control” value (FIG. 7 plate: BA 200 μM) did it give?
**A.** strongest effect on neurite outgrowth

**Q.** And the “neurite outgrowth compared to control” value (FIG. 7 plate: BA 12.5, 25, 50, 100 and 200 μM)?
**A.** increased neurite outgrowth in a dose-dependent manner

**Q.** And the “observed mean neurite outgrowth, percentage relative to control (100%)” value [2]?
**A.** increased neurite outgrowth more than supplementation of vitamin B2 and D3 alone

**Q.** What about the “observed mean neurite outgrowth, percentage relative to control (100%)” value [3] of the same compound?
**A.** increased neurite outgrowth
